{"source": "paper PMC4399838", "about": "“Antipsychotic-Like Effect of the Muscarinic Acetylcholine Receptor Agonist BuTAC in Non-Human Primates” (PLoS ONE, 2015)", "key": {"M5AChR": {"molecular_target": "T1, M5AChR (Homo sapiens, UniProt P08912)", "T1 sequence (P08912 1-532)": "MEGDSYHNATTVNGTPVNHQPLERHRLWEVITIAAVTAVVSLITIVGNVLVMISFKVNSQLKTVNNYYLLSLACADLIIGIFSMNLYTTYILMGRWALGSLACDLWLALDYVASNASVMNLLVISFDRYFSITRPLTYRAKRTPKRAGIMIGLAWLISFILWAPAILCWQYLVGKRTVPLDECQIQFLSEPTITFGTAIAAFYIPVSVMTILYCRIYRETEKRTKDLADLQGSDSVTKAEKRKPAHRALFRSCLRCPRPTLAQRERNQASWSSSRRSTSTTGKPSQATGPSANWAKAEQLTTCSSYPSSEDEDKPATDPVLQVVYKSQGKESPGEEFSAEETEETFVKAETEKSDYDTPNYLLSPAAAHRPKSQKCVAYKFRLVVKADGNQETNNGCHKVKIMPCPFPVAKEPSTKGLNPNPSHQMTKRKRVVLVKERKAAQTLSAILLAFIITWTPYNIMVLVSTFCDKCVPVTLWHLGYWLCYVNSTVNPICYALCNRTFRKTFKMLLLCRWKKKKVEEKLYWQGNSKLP", "assay": "Competitive radioligand binding"}, "M3AChR": {"molecular_target": "M3AChR (Homo sapiens, UniProt P20309)", "sequence (P20309 whole entry)": "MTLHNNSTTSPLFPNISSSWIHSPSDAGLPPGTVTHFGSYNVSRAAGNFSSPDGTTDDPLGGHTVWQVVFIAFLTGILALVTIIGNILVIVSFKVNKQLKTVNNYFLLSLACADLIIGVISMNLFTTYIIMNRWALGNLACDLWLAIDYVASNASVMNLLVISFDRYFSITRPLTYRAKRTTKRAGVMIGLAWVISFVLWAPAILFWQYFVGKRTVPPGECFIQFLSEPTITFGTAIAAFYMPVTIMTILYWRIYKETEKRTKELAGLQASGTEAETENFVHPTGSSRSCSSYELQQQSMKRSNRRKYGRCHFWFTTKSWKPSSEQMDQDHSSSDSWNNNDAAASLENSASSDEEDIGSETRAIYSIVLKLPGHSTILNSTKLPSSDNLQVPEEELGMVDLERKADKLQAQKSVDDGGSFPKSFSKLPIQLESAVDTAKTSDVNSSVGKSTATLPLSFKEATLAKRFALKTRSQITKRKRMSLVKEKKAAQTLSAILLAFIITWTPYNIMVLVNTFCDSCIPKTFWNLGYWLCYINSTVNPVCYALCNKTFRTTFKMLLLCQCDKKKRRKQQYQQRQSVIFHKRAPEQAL", "assay": "Competitive radioligand binding"}, "M1AChR": {"molecular_target": "T2, M1AChR (Homo sapiens, UniProt P11229)", "T2 sequence (P11229 1-460)": "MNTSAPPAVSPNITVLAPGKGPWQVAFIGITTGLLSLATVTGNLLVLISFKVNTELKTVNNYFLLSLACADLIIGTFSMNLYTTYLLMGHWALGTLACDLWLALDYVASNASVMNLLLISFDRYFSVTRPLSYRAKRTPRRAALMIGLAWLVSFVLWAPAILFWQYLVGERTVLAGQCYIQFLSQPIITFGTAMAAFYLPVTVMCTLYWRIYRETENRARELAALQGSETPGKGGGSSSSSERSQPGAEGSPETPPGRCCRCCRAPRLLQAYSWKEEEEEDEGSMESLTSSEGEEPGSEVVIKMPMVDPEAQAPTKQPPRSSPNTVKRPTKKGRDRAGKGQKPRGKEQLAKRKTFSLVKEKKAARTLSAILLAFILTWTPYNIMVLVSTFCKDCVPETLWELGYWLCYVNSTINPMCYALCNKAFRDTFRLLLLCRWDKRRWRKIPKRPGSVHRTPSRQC", "assay": "Competitive radioligand binding"}, "[1]": {"system": "antipsychotic-naïve Cebus Apella monkeys", "assay": "Side effects of BuTAC alone or with d-amphetamine", "assay_type": "in vivo", "protocol": "Seven male Cebus Apella monkeys were used for evaluation the anti-amphetamine effect and the side effect profile of BuTAC. These monkeys were never before administered antipsychotics and had never experienced EPS, but had previously been administered amphetamine. For further evaluation of the EPS potential of BuTAC, the compound was tested in four male and female monkeys, all sensitized to drug-induced EPS by earlier chronic treatment with classical antipsychotic drugs.\nAll monkeys received all treatments with at least one week between tests and thus served as their own control. To avoid extended physical contact with the experimenter, the cages were reduced in sized by moving the back wall of the cage closer to the front wall to lightly immobilize the monkey while injecting the test substance in the thigh. This was done at 9 am at test days. After the appropriate pre-treatment time, the monkeys were videotaped in their cages at predefined time points after drug injection.\nThe rated primate behaviours and symptoms were the following: unrest, stereotypy, arousal, sedation and bradykinesia (Table 1). All monkeys were videotaped in 90-sec. sessions at specific time points throughout the test sessions. The videotapes were rated for amphetamine-induced behaviours and EPS by two experienced raters blinded to the treatment of the animal by means of a rating scale adapted from Peacock et al. and previously described by Andersen et al. (Table 1). In case of any discrepancy between the two ratings, the recording in question was re-evaluated and a rating agreed upon. The monkeys were videotaped at t = 30, 60, 90, 135, 150, 165, 180, 240, 300 min after BuTAC (or vehicle) administration. For the combination studies, d-amphetamine was injected at t = 120 min. Oral dyskinesia was measured in counts per 90 sec. The severity of other behaviours and symptoms were rated on a scale ranging from 0 (not present) to 6 (extreme presence).\nFor evaluation of anti-amphetamine effects, BuTAC was tested in doses of 0.001, 0.003, 0.01 mg/kg in combination with 0.5 mg/kg of d-amphetamine. BuTAC or peanut oil vehicle was injected s.c. at approximately 9 a.m. Pre-treatment time before s.c. injection of amphetamine was 120 min. For evaluation of side effects, BuTAC was tested alone at doses of 0.001, 0.003 and 0.01 mg/kg in antipsychotic-naïve monkeys and at doses of 0.003 and 0.01 mg/kg in monkeys sensitized to extrapyramidal side effects (EPS) by earlier long-term treatment with first generation antipsychotics. […] None of the animals were sacrificed.\nData from the experiments where BuTAC was administered alone collected at t = 60, 180, 300 min are presented. For the d-amphetamine / BuTAC study, data collected at t(amp) = 60, 120 and 180 min (t = 180, 240, 300 min) are reported. Data were analyzed for overall treatment effects at each time point by means of the non-parametric Friedman’s test for repeated measures. The Student Newman-Keuls comparison procedure was used to analyze for specific dose effects. For all tests, the accepted level of significance was p<0.05."}, "[2]": {"molecular_target": "T3, human M1 muscarinic receptor (Homo sapiens, UniProt P11229)", "T3 construct": "purchased PerkinElmer Life and Analytical Sciences, Boston, MA", "T3 sequence (P11229 1-460)": "T2 sequence (P11229 1-460)", "parameters": "method as in Watt et al. 2013 [10]", "details": "ref Watt et al. 2013 [10], cited from earlier work"}, "[3]": {"details": "BuTAC 0.001 mg/kg / d-amphetamine 0.5 mg/kg"}, "[4]": {"details": "BuTAC alone 0.001, 0.003, 0.01 mg/kg"}}}
{"smiles": "CCCSc1nsnc1[C@H]1CN2CCC[C@H]1C2", "note": "[PTAC, (5R,6R) 6-(3-propylthio-1,2,5-thiadiazol-4-yl)-1-azabicyclo-[3.2.1]-octane]", "values": [{"measurement": "Ki", "setting": "M5AChR", "result": 0.372, "unit": "nM"}, {"measurement": "Ki", "setting": "M3AChR", "result": 0.398, "unit": "nM"}, {"measurement": "Ki", "setting": "M1AChR", "result": 1.05, "unit": "nM"}]}
{"smiles": "CCCCSc1nsnc1[C@H]1CN2CCC[C@H]1C2", "note": "[BuTAC, (5R,6R)-6-(3-butylthio-1,2,5-thiadiazol-4-yl)-1-azabicyclo[3.2.1]octane]", "values": [{"measurement": "Emetic events (vomiting) (monkeys affected)", "setting": "[1]; [3]", "result": 0}, {"measurement": "Sedation 2 ≤ X ≤ 5 (monkeys affected)", "setting": "[1]; [3]", "result": 0}, {"measurement": "Salivation (monkeys affected)", "setting": "[1]; BuTAC 0.001 mg/kg / vehicle", "result": 0}, {"measurement": "Sedation 2 ≤ X ≤ 5 (monkeys affected)", "setting": "[1]; BuTAC 0.001 mg/kg / vehicle", "result": 0}, {"measurement": "Sedation 2 ≤ X ≤ 5 (monkeys affected)", "setting": "[1]; BuTAC 0.003 mg/kg / d-amphetamine 0.5 mg/kg", "result": 0}, {"measurement": "Salivation (monkeys affected)", "setting": "[1]; BuTAC 0.003 mg/kg / vehicle", "result": 0}, {"measurement": "Muscular relaxation (monkeys affected)", "setting": "[1]; BuTAC 0.01 mg/kg (footnote of Table 3)", "result": "all monkeys"}, {"measurement": "Sedation 2 ≤ X ≤ 5 (monkeys affected)", "setting": "[1]; BuTAC 0.01 mg/kg / d-amphetamine 0.5 mg/kg", "result": 0}, {"measurement": "Muscular relaxation (monkeys affected)", "setting": "[1]; BuTAC 0.001 and 0.003 mg/kg (footnote of Table 3)", "result": "one"}, {"measurement": "Muscular relaxation (monkeys affected)", "setting": "[1]; BuTAC 0.003 and 0.01 mg/kg combined with d-amphetamine", "result": "Six"}, {"measurement": "Unrest (rating 0–6)", "setting": "[1]; BuTAC alone 0.01 mg/kg, after 180 and 300 min, p<0.05", "result": "decrease in unrest"}, {"measurement": "Sedation (rating 0–6)", "setting": "[1]; BuTAC alone 0.01 mg/kg, all three test times, p<0.05 relative to vehicle", "result": "produced sedation"}, {"measurement": "Arousal", "setting": "[1]; [4]", "result": "no significant effect"}, {"measurement": "Stereotypies, oral dyskinesia, bradykinesia or dystonia", "setting": "[1]; [4]", "result": "not observed"}, {"measurement": "Sedation, oral dyskinesia, bradykinesia or dystonia", "setting": "[1]; BuTAC and d-amphetamine", "result": "not observed"}, {"measurement": "EPS", "setting": "[1]; EPS naive monkeys", "result": "did not induce EPS"}, {"measurement": "Rel pEC50", "setting": "[2]; agonist mode, negative log-transformed", "result": "9.22±9.80", "unit": "M"}, {"measurement": "% Emax", "setting": "[2]; agonist mode", "result": "33.56±6.29", "unit": "%"}, {"measurement": "Rel pIC50", "setting": "[2]; antagonist mode, negative log-transformed", "result": "9.03±10.01", "unit": "M"}, {"measurement": "% Inhibition", "setting": "[2]; antagonist mode", "result": "57.27±2.35", "unit": "%"}]}
